Laboratory results taken from patent publication US11866720B2, “Transgenic or non-transgenic plants with mutated protoporphyrinogen oxidase having increased tolerance to herbicides” (priority 2013, dated 2024).
Positions count from the first letter of the chain named.

What was measured:
Experiment in all cases: biochemical
[1] = biological target: T1, recombinant wildtype and mutated PPO (Amaranthus PPO2: PPX2L_WC SEQ ID NO 2, PPX2L_AC SEQ ID NO 4, dG210 SEQ ID NO 6 & 8) (Amaranthus tuberculatus, UniProt Q0NZW9, D133A/F420M/R128F); settings: IC50 (M)
T1 sequence (Q0NZW9 1-534 R128F/D133A/F420M): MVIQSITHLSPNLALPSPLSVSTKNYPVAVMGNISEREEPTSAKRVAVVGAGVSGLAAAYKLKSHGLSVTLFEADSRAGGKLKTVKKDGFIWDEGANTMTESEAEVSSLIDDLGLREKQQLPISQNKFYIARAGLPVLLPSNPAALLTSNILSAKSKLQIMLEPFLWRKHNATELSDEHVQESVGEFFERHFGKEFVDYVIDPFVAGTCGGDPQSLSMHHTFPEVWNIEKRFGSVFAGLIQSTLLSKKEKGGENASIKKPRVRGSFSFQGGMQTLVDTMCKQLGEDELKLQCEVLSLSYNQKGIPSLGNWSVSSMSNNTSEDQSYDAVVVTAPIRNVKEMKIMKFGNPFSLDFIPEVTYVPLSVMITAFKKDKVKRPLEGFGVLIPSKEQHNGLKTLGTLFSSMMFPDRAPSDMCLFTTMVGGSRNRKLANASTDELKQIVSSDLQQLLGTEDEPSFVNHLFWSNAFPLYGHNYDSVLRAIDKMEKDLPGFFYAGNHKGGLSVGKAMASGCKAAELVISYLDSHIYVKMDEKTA

[2] = biological target: recombinant wildtype and mutated PPO (Amaranthus PPO2: PPX2L_WC SEQ ID NO 2, PPX2L_AC SEQ ID NO 4, dG210 SEQ ID NO 6 & 8) (Amaranthus tuberculatus, UniProt Q0NZW9, D133A/F420M/R128G); settings: IC50 (M)
[3] = biological target: T2, recombinant wildtype and mutated PPO (Amaranthus PPO2: PPX2L_WC SEQ ID NO 2, PPX2L_AC SEQ ID NO 4, dG210 SEQ ID NO 6 & 8) (Amaranthus tuberculatus, UniProt Q0NZW9, D133A/F420M/R128T); settings: IC50 (M)
T2 sequence (Q0NZW9 1-534 R128T/D133A/F420M): T1 sequence (Q0NZW9 1-534 R128F/D133A/F420M) with F128T

[4] = biological target: recombinant wildtype and mutated PPO (Amaranthus PPO2: PPX2L_WC SEQ ID NO 2, PPX2L_AC SEQ ID NO 4, dG210 SEQ ID NO 6 & 8) (Amaranthus tuberculatus, UniProt Q0NZW9, D133A/F420L/R128H); settings: IC50 (M)
[5] = biological target: T3, recombinant wildtype and mutated PPO (Amaranthus PPO2: PPX2L_WC SEQ ID NO 2, PPX2L_AC SEQ ID NO 4, dG210 SEQ ID NO 6 & 8) (Amaranthus tuberculatus, UniProt Q0NZW9)
T3 sequence (Q0NZW9 1-534): T1 sequence (Q0NZW9 1-534 R128F/D133A/F420M) with F128R, A133D, M420F

[6] = biological target: T4, recombinant wildtype and mutated PPO (Amaranthus PPO2: PPX2L_WC SEQ ID NO 2, PPX2L_AC SEQ ID NO 4, dG210 SEQ ID NO 6 & 8) (Amaranthus tuberculatus, UniProt Q0NZW9, R128A/F420M, form not given)
T4 sequence (Q0NZW9 1-534 R128A/F420M): T1 sequence (Q0NZW9 1-534 R128F/D133A/F420M) with F128A, A133D

Chain of recombinant wildtype and mutated PPO (Amaranthus PPO2: PPX2L_WC SEQ ID NO 2, PPX2L_AC SEQ ID NO 4, dG210 SEQ ID NO 6 & 8) (Amaranthus tuberculatus, UniProt Q0NZW9, D133A/F420M/R128G) (Q0NZW9 1-534 R128G/D133A/F420M): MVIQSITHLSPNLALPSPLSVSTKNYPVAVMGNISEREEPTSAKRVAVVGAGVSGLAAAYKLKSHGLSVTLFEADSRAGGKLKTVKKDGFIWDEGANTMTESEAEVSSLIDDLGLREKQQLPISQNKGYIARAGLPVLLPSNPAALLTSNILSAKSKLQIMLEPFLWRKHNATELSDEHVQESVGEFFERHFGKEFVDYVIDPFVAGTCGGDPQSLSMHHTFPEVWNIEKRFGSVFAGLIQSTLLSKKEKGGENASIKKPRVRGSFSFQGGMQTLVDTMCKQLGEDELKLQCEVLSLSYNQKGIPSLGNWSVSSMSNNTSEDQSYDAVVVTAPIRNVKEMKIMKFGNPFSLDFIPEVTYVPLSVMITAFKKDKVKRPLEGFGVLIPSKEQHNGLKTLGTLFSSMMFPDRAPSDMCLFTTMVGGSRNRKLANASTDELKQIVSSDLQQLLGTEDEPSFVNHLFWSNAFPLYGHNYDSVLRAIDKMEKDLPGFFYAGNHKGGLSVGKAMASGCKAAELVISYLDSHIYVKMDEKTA
Chain of recombinant wildtype and mutated PPO (Amaranthus PPO2: PPX2L_WC SEQ ID NO 2, PPX2L_AC SEQ ID NO 4, dG210 SEQ ID NO 6 & 8) (Amaranthus tuberculatus, UniProt Q0NZW9, D133A/F420L/R128H) (Q0NZW9 1-534 R128H/D133A/F420L): as the sequence (Q0NZW9 1-534 R128G/D133A/F420M) above, with G128H, M420L counted along it

| Structure (SMILES) | IC50 [1] [M] | IC50 [2] [M] | IC50 [3] [M] | IC50 [4] [M] | IC50 [5] [nM] | IC50 [6] [nM] |
| --- | --- | --- | --- | --- | --- | --- |
| C#CCN1C(=O)C(F)(F)Oc2cc(F)c(-n3c(=O)n(C)c(=S)n(C)c3=O)cc21 | 1.21e-07 | 1.26e-08 | 4.33e-08 | 7.98e-08 | – | – |
| C#CCN1C(=O)C(F)(F)Oc2cc(F)c(-n3c(=O)cc(C(F)(F)F)n(C)c3=O)cc21 | – | – | – | – | 0.315 | 2.56 |
| C#CCN1C(=O)C(F)(F)Oc2cc(F)c(N3C(=O)C4=C(CCCC4)C3=O)cc21 | – | – | – | – | 0.146 | 641 |
| COC(Oc1ccccc1Oc1cc(-n2c(=O)cc(C(F)(F)F)n(C)c2=O)c(F)cc1Cl)C(=O)OC1CCCCC1 (stereo not drawn) | 6.26e-08 | 5.14e-08 | 1.17e-07 | 6.93e-07 | – | – |
| COC(=O)C(OC)Oc1ccccc1Oc1cc(-n2c(=O)cc(C(F)(F)F)n(C)c2=O)c(F)cc1Cl (stereo not drawn) | 2.81e-09 | 4.76e-08 | 2.79e-08 | 4.47e-08 | 0.411 | – |
| C#CCN1C(=O)COc2cc(F)c(N3C(=O)C4=C(CCCC4)C3=O)cc21 [Flumioxazin, flumioxazin] | – | – | – | – | – | 8430 |
